For 18 molecules, IC50 results are on record in US20260184704A1, “NLRP3 INFLAMMASOME INHIBITORS AND USES THEREOF” (Insilico Medicine IP Limited, priority 2023, published 2026).

One test addresses T1, NLRP3 (Homo sapiens, UniProt Q96P20).
T1 construct: purchased ICE YM2306T-H06MHS
The experiment in a line: NLRP3 Enzymatic Activity ADP-Glo Assay (Example B-4). It is filed as biochemical. The following applies: hydrolysis of ATP by NLRP3; NLRP3 15 nM, ATP 1 μM; read-out: NLRP3_ADP-Glo_IC50 (nM), Example B-4. The procedure:
Example B-4: NLRP3 Enzymatic Activity ADP-Glo Assay
NLRP3 activity test experiment, measuring the hydrolysis of NLRP3 on the substrate ATP using the ADP-Glo assay. First, after adding an inhibitor containing 0.5% DMSO with Echo, add 5 μL of NLRP3 (ICE, YM2306T-H06MHS) enzyme solution to each well, centrifuge at 1000 rpm for 1 min at room temperature and react for 10 min. Then add 5 μL of ATP (Promega, V915A) substrate solution to each well for 90 min at room temperature; NLRP3 and ATP were prepared in 50 mM HEPES, 10 mM MgCl2, 0.01% Brij-35, 1 mM EGTA, and 2 mM DTT buffers at final concentrations of 15 nM and 1 μM, respectively. Subsequently, 10 μL ADP-Glo reagent solution (Promega, V9102) was added into each assay well, centrifuged at 1000 rpm for 1 min, and then incubated at room temperature for 45 min. Finally, 20 μL ADP-Glo detection solution (Promega, V9102) is added to each well, centrifuged at 1000 rpm for 1 min and reacted for 45 min at room temperature. The luminescence signal values were read using a BMG instrument and the IC50 values were determined by fitting the data to an S-shaped dose-response curve using nonlinear regression.
(ADP-Glo first removes unused ATP, then detects ADP through luciferase.)

In test [1] the test system is THP-1 cells, IL-1β release. The test can be described thus: IL-1β Release THP-1 Assay (Example B-3). The format is cell-based. As to conditions: Homo sapiens; PMA-differentiated THP-1 cells, LPS then Nigericin, IL-1β by Elisa; read-out: Potency, THP-1 IL-1β, IC50 (nM), Example B-3. As for the experimental part: Example B-3: IL-1β Release THP-1 Assay
THP-1 cells Culture RPMI1640 medium, 10% FBS, 1% PS, 55 uM β-Mer at 37° C. & 5% CO2 incubator.
IL-1β Release Detection • 1) Seed THP-1 in complete RPMI 1640 medium containing PMA into 96 well plate coated with poly-L-lysin incubate for 24 hours. • 2) Remove medium, wash the differentiated THP-1 cells with PBS, add FBS free RPMI 1640 medium. • 3) Add LPS and incubate for 3 hours at 37° C. & 5% CO2 incubator. • 4) Add compounds and incubate for 30 minutes at 37° C. & 5% CO2 incubator. • 5) Add Nigericin and incubate for 1 hour at 37° C. & 5% CO2 incubator. • 6) Collect supernatant to test IL-1β by Elisa.
• a) Assay robustness check with DMSO and Low control data:
[formula] • X: cpd concentration • Y: change % • Top and Bottom: Plateaus in same units as Y • logIC50: same log units as X • HillSlope: Slope factor or Hill slope

For a further test, the target named is T2, hERG (Homo sapiens, UniProt Q12809).
T2 construct: expressed in transfected cells
T2 sequence (Q12809 whole entry): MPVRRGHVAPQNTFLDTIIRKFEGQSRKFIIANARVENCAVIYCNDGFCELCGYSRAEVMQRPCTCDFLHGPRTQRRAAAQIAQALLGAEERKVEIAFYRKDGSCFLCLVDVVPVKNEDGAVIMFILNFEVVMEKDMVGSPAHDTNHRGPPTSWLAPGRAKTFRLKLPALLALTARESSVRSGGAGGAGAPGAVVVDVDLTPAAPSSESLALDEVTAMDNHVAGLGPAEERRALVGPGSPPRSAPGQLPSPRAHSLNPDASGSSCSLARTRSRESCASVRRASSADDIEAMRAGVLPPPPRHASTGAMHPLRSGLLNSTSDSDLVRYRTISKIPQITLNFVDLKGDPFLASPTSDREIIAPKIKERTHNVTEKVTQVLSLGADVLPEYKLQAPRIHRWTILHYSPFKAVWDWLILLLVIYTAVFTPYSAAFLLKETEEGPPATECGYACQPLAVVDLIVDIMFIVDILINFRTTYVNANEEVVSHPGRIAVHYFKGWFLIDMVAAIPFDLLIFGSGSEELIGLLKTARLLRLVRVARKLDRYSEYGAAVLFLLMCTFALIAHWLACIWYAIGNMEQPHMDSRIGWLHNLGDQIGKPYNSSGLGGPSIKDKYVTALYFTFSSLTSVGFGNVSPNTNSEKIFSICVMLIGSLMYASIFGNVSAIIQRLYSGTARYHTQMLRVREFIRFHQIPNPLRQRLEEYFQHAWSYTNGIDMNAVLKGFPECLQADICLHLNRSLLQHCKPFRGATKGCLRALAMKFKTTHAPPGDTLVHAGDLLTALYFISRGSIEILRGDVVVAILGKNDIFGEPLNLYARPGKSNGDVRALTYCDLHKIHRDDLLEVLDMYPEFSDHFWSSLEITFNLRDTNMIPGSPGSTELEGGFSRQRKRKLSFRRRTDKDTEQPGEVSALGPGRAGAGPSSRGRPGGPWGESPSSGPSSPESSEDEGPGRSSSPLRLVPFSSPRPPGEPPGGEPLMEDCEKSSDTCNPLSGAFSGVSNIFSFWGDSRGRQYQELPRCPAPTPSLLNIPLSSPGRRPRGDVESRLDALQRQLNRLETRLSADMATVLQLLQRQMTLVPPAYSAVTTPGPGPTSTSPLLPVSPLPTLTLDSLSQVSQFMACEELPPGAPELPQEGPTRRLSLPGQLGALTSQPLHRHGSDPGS
The test can be described thus: hERG Screening Assay Using Electrophysiological Manual Patch-Clamp (Example B-5). It is filed as cell-based. As to conditions: hERG-CHO cells, whole-cell manual patch clamp, room temperature; read-out: hERG inhibition_IC50 (μM), Example B-5. The procedure:
Example B-5: hERG Screening Assay Using Electrophysiological Manual Patch-Clamp
Cell lines: hERG-CHO cells
Method: CHO cells stably expressing the transcript of hERG were investigated by whole-cell manual patch clamp technique. hERG-CHO cells were cultured in 35 mm dishes to a maximum 70-80% confluence at 37° C. 5% CO2 incubator. The culture media (F12 medium (Invitrogen 11765062, ThermoFisher, USA) supplemented with 10% fetal bovine serum (Invitrogen 10099141, ThermoFisher, USA), 100 μg/mL G418 (Invitrogen 11811023, ThermoFisher, USA) and 100 μg/mL Hygromycin B (Invitrogen 10687010, ThermoFisher, USA)) was removed and the hERG-CHO cells were washed with extracellular solution (in mM): 140 NaCl, 5 KCl, 1 CaCl2), 1.25 MgCl2, 10 HEPES and 10 Glucose, pH 7.4 with NaOH. Then the cells were dissociated with 0.25% Trypsin-EDTA for 3-5 min, after that, the digestion solution was removed and the cells were resuspended in the extracellular solution with pipette by pipetting up and down several times. Resuspended cells were transferred to dishes for recording and cells were perfused with extracellular solution. Electrodes (a tip resistance of 3-5 MegOhm) were pulled from borosilicate grass pipette (Sutter instrument BF150-86-10) and filled with intracellular solution (in mM): 140 KCl, 1 MgCl2, 1 CaCl2), 10 EGTA and 10 HEPES, pH 7.2 with KOH. Data were obtained using a patch-clamp amplifier, signals were filtered at 2 kHz and sampled at frequencies of 10 kHz using pClamp 10 software. The cells were held at −100 mV and hERG potassium currents were activated by a 2 s depolarization potential of +20 mV followed by a repolarization potential of −50 mV for Is then back to the holding potential. Experiments were performed at room temperature.
Data analysis: Data were retrieved and analyzed using pClamp 10, GraphPad Prism 8 and Excel software. The peak amplitude of hERG currents were measured using clampfit and exported to Excel and GraphPad Prism 8 for subsequent analysis.
where Y is the inhibition % corresponding to X, [X] is the Log value of concentration of compound in the external solution and HillSlope is the Hill coefficient. The ratio of inhibition was calculated by using the equation: Inhibition=(1−I/Io)*100%, where Io and I are the current amplitude measured in control and in the presence of compounds, respectively. n is not less than 2 cells for each concentration.
Results: Compounds IC50 on hERG and concentration-response curves
(Block of hERG is tested as a sign of cardiac risk.)

T1 sequence (Q96P20 whole entry): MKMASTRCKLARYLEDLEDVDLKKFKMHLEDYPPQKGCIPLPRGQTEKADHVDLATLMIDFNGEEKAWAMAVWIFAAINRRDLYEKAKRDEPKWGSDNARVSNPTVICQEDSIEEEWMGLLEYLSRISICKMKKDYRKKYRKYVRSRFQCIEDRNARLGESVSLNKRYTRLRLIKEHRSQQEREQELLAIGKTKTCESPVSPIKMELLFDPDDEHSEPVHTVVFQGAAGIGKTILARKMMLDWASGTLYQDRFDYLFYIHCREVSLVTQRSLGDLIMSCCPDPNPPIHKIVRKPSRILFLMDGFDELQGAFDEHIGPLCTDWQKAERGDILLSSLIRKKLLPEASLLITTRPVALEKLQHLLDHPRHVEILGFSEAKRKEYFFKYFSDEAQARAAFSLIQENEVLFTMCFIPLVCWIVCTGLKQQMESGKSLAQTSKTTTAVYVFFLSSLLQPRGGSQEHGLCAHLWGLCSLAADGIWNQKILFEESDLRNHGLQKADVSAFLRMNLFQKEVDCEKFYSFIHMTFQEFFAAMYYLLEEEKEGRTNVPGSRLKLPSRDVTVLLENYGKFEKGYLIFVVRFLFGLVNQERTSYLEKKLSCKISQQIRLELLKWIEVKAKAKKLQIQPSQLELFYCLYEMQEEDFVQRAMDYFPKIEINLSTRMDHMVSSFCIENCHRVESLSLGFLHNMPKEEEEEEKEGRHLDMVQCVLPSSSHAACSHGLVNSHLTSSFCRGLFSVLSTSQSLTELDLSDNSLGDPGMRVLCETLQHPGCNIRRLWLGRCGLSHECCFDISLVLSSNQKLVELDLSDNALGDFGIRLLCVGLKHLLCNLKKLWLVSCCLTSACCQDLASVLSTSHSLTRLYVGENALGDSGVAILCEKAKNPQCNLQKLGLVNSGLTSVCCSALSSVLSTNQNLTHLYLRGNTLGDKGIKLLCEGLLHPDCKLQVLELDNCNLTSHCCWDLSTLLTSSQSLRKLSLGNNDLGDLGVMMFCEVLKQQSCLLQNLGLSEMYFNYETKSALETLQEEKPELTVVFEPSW

For `Cc1cc(C(F)(F)F)cc(O)c1C1=NN=C(N[C@@H]2C[C@@H](F)CN(C)C2)SC1` [Compound 8], the IC50 on NLRP3 is 10 to 100 nM; in test [1], 10 to 100 nM; at hERG, 19.1 µM.

As to `Cc1cc(C(F)(F)F)cc(O)c1C1=NN=C(N[C@H]2C[C@@](C)(O)C2)SC1` [Compound 10], the IC50 is 10 to 100 nM at NLRP3, 10 to 100 nM in test [1] and greater than 30 µM on hERG.

Regarding `Cc1cc2c(c(O)c1C1=NN=C(N[C@@H]3CCCN(C)C3)SC1)CCO2` [Compound 28], the IC50 on NLRP3 is 10 to 100 nM; in test [1], less than 10 nM; at hERG, 29.4 µM.

On to `Cc1cc2c(c(O)c1C1=NN=C(N[C@H]3C[C@@](C)(O)C3)SC1)CCO2` [Compound 31], for which the figures for the IC50 (at NLRP3; in test [1]; on hERG) were 10 to 100 nM, 10 to 100 nM and greater than 30 µM, respectively.

In the case of `Cc1cc2c(c(O)c1C1=NN=C(N3CCC4CCN(C)CC43)SC1)CCO2` (centres unmarked) [Compound 51], the IC50 on NLRP3 is 10 to 100 nM; in test [1], less than 10 nM.

On to `Cc1c(F)c2c(c(O)c1C1=NN=C(N[C@@H]3CCCN(C)C3)SC1)CCO2` [Compound 57], for which the IC50 (at NLRP3; in test [1]) was 10 to 100 nM each time.

As to `C[C@]1(O)C[C@@H](NC2=NN=C(c3c(C(F)(F)F)cc4c(c3O)CCO4)CS2)C1` [Compound 58], the IC50 (on NLRP3; in test [1]) was 10 to 100 nM each time.

With `Cc1cc2c(c(O)c1C1=NN=C(N[C@H]3C[C@@](C)(O)C3)SC1)CC2` [Compound 59], the IC50 on NLRP3 was less than 10 nM; in test [1], less than 10 nM; at hERG it was greater than 30 µM.

Turning to `C[C@]1(O)C[C@@H](NC2=NN=C(c3c(Cl)cc4c(c3O)CCO4)CS2)C1` [Compound 60], the IC50 (at NLRP3; in test [1]) was 10 to 100 nM in each case.

As for `C[C@]1(O)C[C@@H](NC2=NN=C(c3c(C(F)F)cc4c(c3O)CCO4)CS2)C1` [Compound 66], the IC50 (at NLRP3; in test [1]) was 10 to 100 nM each time.

As for `Cc1cc2c(c(O)c1C1=NN=C(N[C@H]3C[C@](C)(O)C3)SC1)CC2` [Compound 67], the IC50 (on NLRP3; in test [1]) was 10 to 100 nM throughout.

For `Cc1cc2c(c(O)c1C1=NN=C(N[C@H]3C[C@@](C)(N)C3)SC1)CC2` [Compound 68], the IC50 (at NLRP3; in test [1]) was 10 to 100 nM in each case.

As for `Cc1cc(C(F)(F)F)cc(O)c1C1=NN=C(N[C@H]2C[C@@](C)(O)C2)CS1` [Compound 201], the IC50 (at NLRP3; in test [1]) was 10 to 100 nM in each case.

Consider `Cc1cc(C(F)(F)F)cc(O)c1C1=NN=C(N[C@H]2C[C@@](C)(O)C2)C(C)(C)S1` [Compound 202], for which the IC50 (at NLRP3; in test [1]) was 10 to 100 nM throughout.

Turning to `Cc1cc2c(c(O)c1C1=NN=C(N[C@H]3C[C@@](C)(O)C3)CS1)CCO2` [Compound 203], the IC50 (at NLRP3; in test [1]) was 10 to 100 nM throughout.

Take `Cc1cc(Cl)cc(O)c1C1=NN=C(N[C@H]2C[C@@](C)(O)C2)CS1` [Compound 204]: the IC50 on NLRP3 is 10 to 100 nM; in test [1], less than 10 nM.

For the molecule `Cc1cc2c(c(O)c1C1=NN=C(N[C@@H]3CCCN(C)C3)CS1)CCO2` [Compound 205], the IC50 (on NLRP3; in test [1]) was less than 10 nM in each case.

Consider `Cc1cc(Cl)cc(O)c1C1=NN=C(N[C@H]2C[C@@](C)(N)C2)CS1` [Compound 206], for which the IC50 (on NLRP3; in test [1]) was 10 to 100 nM throughout.
